Data as given in patent US4661603A, “Imidazole derivatives” (Yoshitomi Pharmaceutical Industries, Ltd., priority 1982, dated 1987).

What was measured:
[1] = Acute toxicity (oral LD50); conditions: rat, in vivo, p.o., six male Wistar rats
Procedure: According to the method described in Journal of Pharmacological and Experimental Therapeutics, vol. 96, page 99 (1949), the test compounds were orally administered to a group consisting of six male Wistar rats. The 50% lethal doses (LD50, mg/kg) were determined.

[2] = system: platelet aggregation; assay: Inhibitory activities on platelet aggregation (ex vivo, arachidonic acid, after oral administration to rabbits); format: in vivo, rabbit; conditions: Oryctolagus cuniculus, 1 h, blood one hour after administration, read-out: Inhibitory activities on platelet aggregation, Rate of inhibition
Procedure: According to the method described in Journal of Physiology, vol. 162, page 67 (1962), the inhibitory activities of compounds of this invention on platelet aggregation were measured from the changes in transmittance with an aggregometer (Rikadenki Electronics Co., Japan).
Before and one hour after the oral administration of test compounds to rabbits, blood was collected. The blood was mixed with sodium citrate in the ratio of 9:1 by volume. Platelet rich plasma (PRP) was prepared by centrifuging the citrated blood at 1000 rpm for 10 minutes, and platelet poor plasma (PPP), by centrifuging the remaining citrated blood at 3000 rpm for 10 minutes.
The transmittance of aggregometer was adjusted to 0 and 100% with PRP and PPP, respectively. To 0.3 ml of a PRP sample was added 0.003 ml of arachidonic acid solution. The changes in transmittance of the mixture were measured using the aggregometer with stirring at 1200 rpm.
Inhibitory activities on platelet aggregation were assessed as % inhibition by comparing the rate of aggregation of treated PRP with that of blood collected before the oral administration of test compounds.

[3] = target: T1, cyclo-oxygenase (Bos taurus, UniProt O62664); assay: Inhibitory effect on cyclo-oxygenase; format: biochemical; conditions: in vitro; bovine seminal vesicle microsomes; 104.3 μM 14C-arachidonic acid, 25° C., 10 minutes; read-out: Inhibitory effect on cyclo-oxygenase (50% inhibitory molar concentration)
T1 construct: bovine seminal vesicle microsomes; from tissue; host or cells: bovine seminal vesicle microsomes
T1 sequence (O62664 25-600): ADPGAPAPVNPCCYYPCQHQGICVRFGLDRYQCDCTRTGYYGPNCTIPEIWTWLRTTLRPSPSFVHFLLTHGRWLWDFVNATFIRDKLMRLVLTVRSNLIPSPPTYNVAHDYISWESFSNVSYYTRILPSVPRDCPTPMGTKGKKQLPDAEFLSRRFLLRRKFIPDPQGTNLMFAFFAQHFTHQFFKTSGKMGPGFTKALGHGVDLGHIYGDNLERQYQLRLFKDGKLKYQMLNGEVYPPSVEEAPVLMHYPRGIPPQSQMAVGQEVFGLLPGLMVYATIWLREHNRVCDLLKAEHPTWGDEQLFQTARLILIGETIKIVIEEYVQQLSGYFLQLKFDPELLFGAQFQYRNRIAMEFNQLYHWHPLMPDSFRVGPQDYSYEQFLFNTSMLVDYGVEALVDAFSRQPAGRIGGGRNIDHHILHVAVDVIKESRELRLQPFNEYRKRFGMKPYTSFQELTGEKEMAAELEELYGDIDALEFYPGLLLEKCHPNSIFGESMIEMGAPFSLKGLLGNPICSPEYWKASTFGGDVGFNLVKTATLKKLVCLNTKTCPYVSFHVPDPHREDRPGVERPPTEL
Procedure: (§1) Effects of test compounds on thromboxane synthetase, cyclo-oxygenase and prostacyclin synthetase were examined in vitro by the following methods:
According to the method described in Proceedings of National Academy of Sciences, U.S.A., vol. 71, page 3645 (1974), bovine seminal vesicle microsomes were incubated with 104.3 μM ^14 C-arachidonic acid at 25° C. for 10 minutes. Prostaglandin E2 thus formed was separated and assayed using the same method as (a).
The inhibitory activities of test compounds on cyclo-oxygenase were assessed by comparing the contents of prostaglandin E2 formed in the presence and absence of test compounds.

[4] = target: T2, prostacyclin synthetase (Rattus norvegicus, UniProt Q62969); assay: Inhibitory effect on prostacyclin synthetase; format: biochemical; conditions: in vitro; rat aorta ring; 1.7 μM 14C-arachidonic acid, 37° C., 20 minutes; read-out: Inhibitory effect on prostacyclin synthetase (50% inhibitory molar concentration)
T2 construct: incubating the rat arota ring; from tissue; host or cells: rat aorta ring
T2 sequence (Q62969 1-501): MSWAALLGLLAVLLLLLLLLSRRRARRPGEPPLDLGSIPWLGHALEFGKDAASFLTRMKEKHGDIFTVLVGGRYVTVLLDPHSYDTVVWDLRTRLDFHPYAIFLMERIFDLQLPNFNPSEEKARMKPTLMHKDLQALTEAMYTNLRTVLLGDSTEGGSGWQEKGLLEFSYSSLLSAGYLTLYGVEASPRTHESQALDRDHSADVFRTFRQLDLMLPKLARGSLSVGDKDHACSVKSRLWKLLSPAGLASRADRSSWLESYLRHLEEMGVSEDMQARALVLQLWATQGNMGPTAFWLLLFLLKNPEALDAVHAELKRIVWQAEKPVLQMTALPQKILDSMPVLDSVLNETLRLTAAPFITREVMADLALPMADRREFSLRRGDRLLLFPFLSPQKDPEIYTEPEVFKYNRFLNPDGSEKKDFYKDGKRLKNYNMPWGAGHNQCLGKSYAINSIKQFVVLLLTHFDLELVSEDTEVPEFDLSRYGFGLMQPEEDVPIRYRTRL
Procedure: as §1
According to the method described in Journal of Pharmacology and Experimental Therapeutics, vol. 215, page 240 (1980), prostacyclin was formed by incubating the rat arota ring with 1.7 μM ^14 C-arachidonic acid at 37° C. for 20 minutes. Since prostacyclin is extremely short-lived, 6-keto-prostaglandin F1α, which is a stable degradation product of prostacyclin, was separated and assayed using the same method as (a).
The inhibitory activities of test compounds on prostacyclin synthetase were assessed by comparing the contents of 6-keto-prostaglandin F1α formed in the presence and the absence of test compounds.

[5] = target: T3, thromboxane synthetase (Homo sapiens, UniProt P24557); assay: Inhibitory effect on thromboxane synthetase; format: biochemical; conditions: in vitro; human platelet microsomes; 4.3 μM 14C-arachidonic acid, 25° C., 5 minutes; read-out: Inhibitory effect on thromboxane synthetase (50% inhibitory molar concentration)
T3 construct: incubating human platelet microsomes; from tissue; host or cells: human platelet microsomes
T3 sequence (P24557 1-533): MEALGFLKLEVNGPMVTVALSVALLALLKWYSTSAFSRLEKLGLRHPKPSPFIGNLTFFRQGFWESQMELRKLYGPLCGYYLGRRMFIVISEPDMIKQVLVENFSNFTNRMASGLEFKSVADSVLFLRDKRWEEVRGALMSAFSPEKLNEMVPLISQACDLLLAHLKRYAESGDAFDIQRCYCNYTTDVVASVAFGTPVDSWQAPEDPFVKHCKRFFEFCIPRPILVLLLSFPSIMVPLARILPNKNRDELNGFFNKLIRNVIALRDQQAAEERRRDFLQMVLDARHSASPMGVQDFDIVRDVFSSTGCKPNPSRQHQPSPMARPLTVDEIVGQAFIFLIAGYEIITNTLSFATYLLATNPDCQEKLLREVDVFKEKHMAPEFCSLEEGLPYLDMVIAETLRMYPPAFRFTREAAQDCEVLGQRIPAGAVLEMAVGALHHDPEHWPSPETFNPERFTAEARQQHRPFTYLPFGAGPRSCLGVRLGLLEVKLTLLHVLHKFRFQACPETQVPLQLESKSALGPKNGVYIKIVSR
Procedure: as §1
According to the method described in Journal of Biological Chemistry, vol. 252, page 5871 (1977), thromboxane was produced by incubating human platelet microsomes with 4.3 μM ^14 C-arachidonic acid at 25° C. for 5 minutes. Since thromboxane A2 is extremely short-lived, thromboxane B2, which is a stable degradation product of thromboxane A2, was assayed. The incubation mixture was extracted with ethyl acetate, and thromboxane B2 was separated on a thin-layer chromatogram. The zone of thromboxane B2 on a silica gel plate was detected with a radiochromatoscanner and scraped off. The radioactivities were determined with a liquid scintilation counter.
The inhibitory activities of test compounds on thromboxane synthetase were assessed by comparing the contents of thromboxane formed in the presence and the absence of test compounds.

Q: Which LD50 [1] does the source give for `Cc1cc(C)c(C(O)c2cccc(-n3ccnc3)c2C)c(C)c1` (stereo not drawn) [α-(2,4,6-Trimethylphenyl)-2-methyl-3-(1-imidazolyl)benzenemethanol] here?
A: > 1000 mg/kg

Q: What about the inhibition at 10 mg/kg [2] of the same compound?
A: 68%

Q: With `Cc1cc(C)c(C(O)c2ccc(C)c(-n3ccnc3)c2)c(C)c1` (stereo not drawn) [α-(2,4,6-Trimethylphenyl)-4-methyl-3-(1-imidazolyl)benzenemethanol] as the compound, how does the LD50 [1] read?
A: > 1000 mg/kg

Q: What about the inhibition at 10 mg/kg [2] of the same compound?
A: 88%

Q: What does the source list for `Cc1cc(C)c(C(O)c2cc(-n3ccnc3)ccc2Cl)c(C)c1` (stereo not drawn) [α-(2,4,6-trimethylphenyl)-2-chloro-5-(1-imidazolyl) benzenemethanol]?
A: LD50 [1]: > 1000 mg/kg; IC50 [3]: > 1000 µM; inhibition at 10 mg/kg [2]: 71%; IC50 [4]: > 1000 µM; IC50 [5]: 2.3 µM

Q: With `Cc1cc(C)c(C(O)c2cc(-n3ccnc3)ccc2C)c(C)c1` (stereo not drawn) [α-(2,4,6-trimethylphenyl)-2-methyl-5-(1-imidazolyl)benzenemethanol] as the compound, how does the LD50 [1] read?
A: > 1000 mg/kg

Q: What about the inhibition at 10 mg/kg [2] of the same compound?
A: 100%

Q: What about the IC50 [5] of the same compound?
A: 0.82 µM

Q: With `Cc1cc(C)c(C(O)c2cccc(-n3ccnc3)c2)c(C)c1` (stereo not drawn) [α-(2,4,6-trimethylphenyl)-3-(1-imidazolyl)benzenemethanol] as the compound, how does the LD50 [1] read?
A: > 1000 mg/kg

Q: What about the IC50 [3] of the same compound?
A: > 1000 µM

Q: And the inhibition at 10 mg/kg [2]?
A: 100%

Q: And the IC50 [4]?
A: > 100 µM

Q: What about the IC50 [5] of the same compound?
A: 0.34 µM

Q: What does the source list for `Cc1cc(C)c(C(O)c2ccc(-n3ccnc3)c(Cl)c2)c(C)c1` (stereo not drawn) [α-(2,4,6-trimethylphenyl)-3-chloro-4-(1-imidazolyl)benzenemethanol]?
A: LD50 [1]: > 1000 mg/kg; IC50 [3]: > 100 µM; inhibition at 10 mg/kg [2]: 80%; IC50 [4]: > 100 µM; IC50 [5]: 0.18 µM

Q: What does the source list for `Cc1cc(C(=O)O)cc(C)c1C(O)c1cc(-n2ccnc2)ccc1Cl` (stereo not drawn) [α-(2,6-dimethyl-4-carboxyphenyl)-2-chloro-5-(1-imidazolyl)benzenemethanol]?
A: LD50 [1]: > 1000 mg/kg; IC50 [3]: > 100 µM; inhibition at 10 mg/kg [2]: 100%; IC50 [4]: > 100 µM; IC50 [5]: 0.052 µM

Q: Which LD50 [1] does the source give for `Cc1ccc(-n2ccnc2)cc1C(O)c1c(C)cc(C(=O)O)cc1C` (stereo not drawn) [α-(2,6-dimethyl-4-carboxyphenyl)-2-methyl-5-(1-imidazolyl)benzenemethanol] here?
A: > 1000 mg/kg

Q: What about the IC50 [3] of the same compound?
A: > 100 µM

Q: What about the inhibition at 10 mg/kg [2] of the same compound?
A: 100%

Q: And the IC50 [4]?
A: > 100 µM

Q: What about the IC50 [5] of the same compound?
A: 0.022 µM

Q: Which LD50 [1] does the source give for `CCOC(=O)c1cc(C)c(C(O)c2cc(-n3ccnc3)ccc2C)c(C)c1` (stereo not drawn) [α-(2,6-dimethyl-4-ethoxycarbonylphenyl)-2-methyl-5-(1-imidazolyl)benzenemethanol] here?
A: > 1000 mg/kg

Q: What about the IC50 [3] of the same compound?
A: > 100 µM

Q: And the inhibition at 10 mg/kg [2]?
A: 100%

Q: And the IC50 [4]?
A: > 100 µM

Q: Which results are given for `Cc1ccc(-n2ccnc2)cc1C(O)c1c(C)cc(C(=O)OC(C)C)cc1C` (stereo not drawn) [α-(2,6-dimethyl-4-isopropoxycarbonylphenyl)-2-methyl-5-(1-imidazolyl)benzenemethanol]?
A: LD50 [1]: > 1000 mg/kg; IC50 [3]: > 100 µM; inhibition at 10 mg/kg [2]: 76%; IC50 [4]: > 100 µM

Q: Which LD50 [1] does the source give for `COC(=O)c1cc(C)c(C(O)c2cc(-n3ccnc3)ccc2C)c(C)c1` (stereo not drawn) [α-(2,6-dimethyl-4-methoxycarbonylphenyl)-2-methyl-5-(1-imidazolyl)benzenemethanol] here?
A: > 1000 mg/kg

Q: What about the IC50 [3] of the same compound?
A: > 100 µM

Q: And the inhibition at 10 mg/kg [2]?
A: 100%

Q: And the IC50 [4]?
A: > 100 µM

Q: What about the IC50 [5] of the same compound?
A: 0.7 µM
